Measured values published in patent EP3409266A1, “ACTIVE INGREDIENT COMBINATIONS OF GLYCERYL GLUCOSIDES AND ONE OR MORE MILD SURFACTANTS” (Beiersdorf AG, priority 2010, dated 2012).

Columns and labels:
Kalbserythrozyten [1] = assay: RBC test: haemolysis (release of haemoglobin, H50); assay type: cell-based, Kalb; conditions: 10 min
Text: (§1) Der Standard RBC-Test dient zur Abschätzung von in-vivo Augenschleimhautreizpotentialen von Tensiden und tensidhaltigen Produkten. Das Verfahren beruht auf der Tatsache, dass Tenside stark mit Zellmembranen und Proteinen interagieren. Beide Effekte werden photometrisch durch Analyse des natürlichen Blutfarbstoffs Oxyhämoglobin ([…]) bestimmt. Im Gegensatz zu anderen zellbasierten Systemen ist der RBC-Test in der Lage zwischen Schädigungen der Zellmembran (Hämolyse) und Proteindenaturierung (Denaturierungsindex) zu differenzieren.
Ein definiertes Aliquot isolierter Kalbserythrozyten wird mit einer Reihe steigender Konzentrationen des zu untersuchenden Musters (Stammlösung für Rohstoffe 0,1 Gew.-% Aktivgehalt der waschaktiven Substanz in PBS; Stammlösung für Fertigprodukte 1:100 w/v in PBS) für 10 Minuten unter Schütteln bei RT inkubiert. PBS ist ein üblicher Standard-PhosphatPuffer (pH 7,4) mit folgender Zusammensetzung:
Die Inkubationsperiode wird durch schnelle Hochgeschwindigkeitszentrifugation beendet. Nach Zentrifugation werden die gewonnenen Überstände photometrisch auf ihren Gehalt an freigesetztem Hämoglobin (HbO2) bei 530 nm analysiert. Daraus wird der relative Hämolysegrad berechnet und die Konzentrations-Response-Kurve mit dem H50-Wert [µl/ml] als Kenngröße bestimmt. Dieser gibt die Konzentration des Prüfmusters an, bei der 50% des Hämoglobins freigesetzt werden. Je höher der Wert, desto verträglicher ist das untersuchte Muster.

Kalbserythrozyten [2] = assay type: cell-based, Kalb
Text: Die Milde eines Tensides oder Tensidsystems lässt sich durch die Bestimmung der Quotienten aus Hämolysewert und Denaturierungsindex charakterisieren. Der Quotient L/D repräsentiert das Verhältnis von Hämolysewert (L) zu Denaturierungsindex (D) und wird durch den Standard RBC-Test bestimmt.
as §1
Der Quotient (L/D-Wert) stellt das Verhältnis der Kenngrößen von Hämolyse (H50) und Denaturierung (DI) dar und wird zur Charakterisierung und Klassifizierung der untersuchten Prüfmuster verwendet.
Tenside oder Tensidmischungen werden erfindungsgemäß als mild angesehen, wenn der L/D-Wert mindestens 1 beträgt. Zum Vergleich dazu hat das häufig in Reinigungsprodukten eingesetzte Natriumlaurylethersulfat einen L/D-Wert von ca. 0,3 und wird als reizend klassifiziert. Sofern in einer Tensidmischung Natriumlaurylethersulfat eingesetzt wird, hat die resultierende Tensidmischung erfindungsgemäß einen L/D-Wert von mindestens 1.

HbO2 = biological target: T1, HbO2 (Bos taurus, UniProt P01966+P02070); assay: RBC test: HbO2 denaturation (denaturation index DI); assay type: cell-based; conditions: raw material 0,1 Gew.-% active content in PBS, 10 min, RT; 100% standard Natriumlaurylsulfat; lower = better tolerated
T1 construct: wird im Vergleich zum nativen HbO2 gemessen; endogenous in cells; host or cells: isolated calf erythrocytes (Kalbserythrozyten)
Text: as §1
Ein definiertes Aliquot isolierter Kalbserythrozyten wird mit einer fixen Konzentration des Prüfmusters (Konzentration für Rohstoffe 0,1 Gew.-% Aktivgehalt der waschaktiven Substanz in PBS; Konzentration für Fertigprodukte 1% w/v in PBS) für 10 Minuten unter Schütteln bei RT inkubiert und dann zentrifugiert. Die Änderung der spektralen Absorption bei 575 nm und 540 nm wird im Vergleich zum nativen HbO2 gemessen. Aus dem Verhältnis der Absorptionswerte zueinander wird der Denaturierungsindex DI [%] berechnet. Als 100%-Standard dient Natriumlaurylsulfat (0,1% Aktivgehalt).
Je geringer der Wert, desto verträglicher ist das untersuchte Muster.

T1 sequence (P01966 2-142 limits assumed): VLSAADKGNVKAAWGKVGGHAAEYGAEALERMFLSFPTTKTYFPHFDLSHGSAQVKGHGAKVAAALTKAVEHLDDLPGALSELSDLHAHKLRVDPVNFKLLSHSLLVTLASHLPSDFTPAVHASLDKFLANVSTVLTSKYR
T1 sequence (P02070 whole entry): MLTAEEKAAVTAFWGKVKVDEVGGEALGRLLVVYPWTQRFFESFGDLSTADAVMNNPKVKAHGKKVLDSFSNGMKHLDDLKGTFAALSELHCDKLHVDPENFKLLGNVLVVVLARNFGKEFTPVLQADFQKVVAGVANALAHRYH

CCCCCCCCCCCC(=O)NC(CCC(=O)O)C(=O)O (centres unmarked) [Natriumlauroylglutamat]
H50 (Kalbserythrozyten [1]; bovine, pH 7.4): 312,3 µl/ml
L/D (Kalbserythrozyten [2]): 29,9
DI (HbO2): 10,5%

CCCCCCCCCCCC(=O)N(C)CC(=O)O [Natriumlauroylsarcosinat]
H50 (Kalbserythrozyten [1]; raw material, stock 0,1 Gew.-% active content in PBS, RT, higher = better tolerated): 458 µl/ml
L/D (Kalbserythrozyten [2]): 7,84
DI (HbO2): 58,4%

Cocamidopropylbetain
H50 (Kalbserythrozyten [1]; bovine, pH 7.4): 56,1 µl/ml
L/D (Kalbserythrozyten [2]): 21,65
DI (HbO2): 2,6%

Decylglucosid
H50 (Kalbserythrozyten [1]; bovine, pH 7.4): 127,7 µl/ml
L/D (Kalbserythrozyten [2]): 33,4
DI (HbO2): 3,9%

Dinatrium PEG-5 Laurylcitratsulfosuccinat
H50 (Kalbserythrozyten [1]; bovine, pH 7.4): 645 µl/ml
L/D (Kalbserythrozyten [2]): 117
DI (HbO2): 5,5%

Dinatriumcocoamphodiacetat
H50 (Kalbserythrozyten [1]; bovine, pH 7.4): 36,4 µl/ml
L/D (Kalbserythrozyten [2]): 24
DI (HbO2): 1,5%

Dinatriumcocoylglutamat
H50 (Kalbserythrozyten [1]; bovine, pH 7.4): 136,6 µl/ml
L/D (Kalbserythrozyten [2]): 1,75
DI (HbO2): 77,9%

Dinatriumlaurylethersulfosuccinat
H50 (Kalbserythrozyten [1]; bovine, pH 7.4): 167,7 µl/ml
L/D (Kalbserythrozyten [2]): 4,15
DI (HbO2): 40,4%

Laurylglucosid
H50 (Kalbserythrozyten [1]; bovine, pH 7.4): 84,1 µl/ml
L/D (Kalbserythrozyten [2]): 20,4
DI (HbO2): 3,2%

Natriumcocoamphoacetat
H50 (Kalbserythrozyten [1]; bovine, pH 7.4): 26 µl/ml
L/D (Kalbserythrozyten [2]): 26
DI (HbO2): 1%

Natriumlaurylethersulfat [reference compound]
Klassifizierung nach L/D-Wert (Kalbserythrozyten [2]): reizend
L/D (Kalbserythrozyten [2]): ca. 0,3

PEG-7 Glycerylcocoat
H50 (Kalbserythrozyten [1]; bovine, pH 7.4): 115,2 µl/ml
L/D (Kalbserythrozyten [2]): 23,5
DI (HbO2): 4,9%
